# Data: ChEMBL document CHEMBL1147194, “Synthesis and evaluation of galactofuranosyl N,N-dialkyl sulfenamides and sulfonamides as antimycobacterial agents” (2007)
# Tested on: Mycolicibacterium smegmatis
# Assay: Antimycobacterial activity against Mycobacterium smegmatis ATCC 14468 after 72 hrs by broth microdilution assay
# Assay type: functional
# Conditions: ATCC 14468, 72 h
row,SMILES,MIC [µg/mL]
1,CCCCCCCCCCN(CCCCCCCCCC)S(=O)(=O)[C@@H]1O[C@@H]([C@H](O)CO)[C@H](O)[C@H]1O,> 32
2,O=S(=O)([C@@H]1O[C@@H]([C@H](O)CO)[C@H](O)[C@H]1O)N(Cc1ccccc1)Cc1ccccc1,> 64
3,CCCCCCN(CCCCCC)S(=O)(=O)[C@@H]1O[C@@H]([C@H](O)CO)[C@H](O)[C@H]1O,64
4,CCCCCCN(CCCCCC)S[C@@H]1O[C@@H]([C@H](O)CO)[C@H](O)[C@H]1O,> 64

# Now those with a lower MIC, led by results:
row,MIC [µg/mL],SMILES
1,1,CCCCCCCCCCN(CCCCCCCCCC)S[C@@H]1O[C@@H]([C@H](O)CO)[C@H](O)[C@H]1O
2,2,CCCCCCCCN(CCCCCCCC)S(=O)(=O)[C@@H]1O[C@@H]([C@H](O)CO)[C@H](O)[C@H]1O
3,16,OC[C@@H](O)[C@@H]1O[C@@H](SN(Cc2ccccc2)Cc2ccccc2)[C@H](O)[C@H]1O
4,4,CCCCCCCCN(CCCCCCCC)S[C@@H]1O[C@@H]([C@H](O)CO)[C@H](O)[C@H]1O
